According to patent publication US4764591A, “Des-19-leucine, 20-glutamine, 21-threonine, 22-tyrosine-calcitonin” (Rorer Pharmaceutical Corporation, priority 1987, dated 1988):
Positions of bridges follow the written chain, without caps; N, C: chain ends. Residues, ends and D or L forms follow the SMILES beside them.

Assays:
[1] = test system: serum calcium concentration
Procedure: Biological Assay of Calcitonin Analogs in Vivo
Rats were divided into four groups of seven animals, and each group was assigned at random to a dose of standard or test solution. Low and high doses were chosen from the linear portion of the dose-response curve. For the salmon calcitonin standard, the values were 0.7 and 2.1 ng. peptide/100 g. body weight (BW). This dose approximates 3 and 9 MU/100 g. BW. Peptides were given by subcutaneous injection (0.2 ml/100 g. BW) and blood was withdrawn 1 hour later for serum calcium determination. Sera are processed and analyzed within two hours of collection. Results were analyzed within two hours of collection.

[2] = literature values; cited from earlier work

| Molecule | hypocalcemic potency [2] | other results |
| --- | --- | --- |
| CC(C)C[C@H](NC(=O)[C@H](CCCCN)NC(=O)CNC(=O)[C@H](CC(C)C)NC(=O)[C@@H](NC(=O)[C@@H]1CSSC[C@H](N)C(=O)N[C@@H](CO)C(=O)N[C@@H](CC(N)=O)C(=O)N[C@@H](CC(C)C)C(=O)N[C@@H](CO)C(=O)N[C@@H]([C@@H](C)O)C(=O)N1)C(C)C)C(=O)N[C@@H](CO)C(=O)N[C@@H](CCC(N)=O)C(=O)N[C@@H](CCC(=O)O)C(=O)N[C@@H](CC(C)C)C(=O)N[C@@H](Cc1c[nH]cn1)C(=O)N[C@@H](CCCCN)C(=O)N[C@@H](CC(C)C)C(=O)N[C@@H](CCC(N)=O)C(=O)N[C@H](C(=O)N[C@@H](Cc1ccc(O)cc1)C(=O)N1CCC[C@H]1C(=O)N[C@@H](CCCNC(=N)N)C(=O)N[C@H](C(=O)N[C@@H](CC(N)=O)C(=O)N[C@H](C(=O)NCC(=O)N[C@@H](CO)C(=O)NCC(=O)N[C@H](C(=O)N1CCC[C@H]1C(N)=O)[C@@H](C)O)[C@@H](C)O)[C@@H](C)O)[C@@H](C)O [standard salmon calcitonin, salmon calcitonin] |  | potency content of the standard, independently determined ([1]; standard salmon calcitonin used in the assay, independently determined): greater than 4,000 IU/mg |
| (1,7-alpha-L-amino-suberic acid) eel calcitonin | about 3400 IU/mg. |  |
| CC(C)C[C@H](NC(=O)[C@H](CCCCN)NC(=O)CNC(=O)[C@H](CC(C)C)NC(=O)[C@@H](NC(=O)[C@@H]1CSSC[C@H](N)C(=O)N[C@@H](CO)C(=O)N[C@@H](CC(N)=O)C(=O)N[C@@H](CC(C)C)C(=O)N[C@@H](CO)C(=O)N[C@@H]([C@@H](C)O)C(=O)N1)C(C)C)C(=O)N[C@@H](CO)C(=O)N[C@@H](CCC(N)=O)C(=O)N[C@@H](CCC(=O)O)C(=O)N[C@@H](CC(C)C)C(=O)N[C@@H](Cc1c[nH]cn1)C(=O)N[C@@H](CCCCN)C(=O)N1CCC[C@H]1C(=O)N[C@@H](CCCNC(=N)N)C(=O)N[C@H](C(=O)N[C@@H](CC(N)=O)C(=O)N[C@H](C(=O)NCC(=O)N[C@@H](CO)C(=O)NCC(=O)N[C@H](C(=O)N1CCC[C@H]1C(N)=O)[C@@H](C)O)[C@@H](C)O)[C@@H](C)O [des-Leu^19, Gln^20, Thr^21, Tyr^22 -SCT, des-19-leucine, 20-glutamine, 21-threonine, 22-tyrosine-salmon calcitonin] (H-CSNLSTCVLGKLSQELHKPRTNTGSGTP-NH2; disulfide 1-7) |  | biological potency ([1]; rat, in vivo, sc): 6250 IU/mg |
| eel calcitonin [synthetic eel calcitonin] | around 4300 IU/mg. |  |
